Patent publication US9827338B2, “GRP-R agonistic 177-lutetium-labeled bombesin derivatives for diagnosis and treatment of prostate cancer” (KOREA ATOMIC ENERGY RESEARCH INSTITUTE, priority 2014, dated 2017)

What was measured:
GRP-R [1] = biological target: T1, GRP-R (Homo sapiens, UniProt P30550); assay: Competitive binding with 125I-[Tyr4]-bombesin in PC-3 cells; details: competition with 125I-[Tyr4]-bombesin (20,000 CPM), 37° C., 1 hour
T1 construct: PC-3 cells were used as a human prostate cancer cell line; host or cells: PC-3 human prostate cancer cells
Procedure: (§1) In order to confirm in vitro targeting efficiency of DOTA-gluBBN and 177Lu-DOTA-gluBBN prepared according to Examples 1 and 2 to prostate cancer cells, PC-3 cells were used as a human prostate cancer cell line. The PC-3 cells corresponding to the human prostate cancer cell line were purchased from Korean cell line bank. The PC-3 cells were cultured in a Roswell Park Memorial Institute (RPMI) 1640 medium containing 10% fetal bovine serum (FBS) at 37° C. in 5% CO2 atmosphere.
(§2) The cells were cultured in a disposable flask for cell culture, and at the time of an experiment, the cells were cultured in a 96-well or 12-well cell culture plate according to an experimental method and then used.
DOTA-gluBBN (10^−6 to 10^−12M) prepared according to Example 1 was co-cultured with 125I-[Tyr^4]-bombesin (20,000 CPM), respectively, in the PC-3 cells, which are human prostate cancer cells, to thereby carry out a competitive reaction. After culturing a cell plate at 37° C. for 1 hour, a reaction solution was recovered. After the cells were washed with PBS and recovered by 1N NaOH, radioactivity of each solution was measured using a gamma counter.

GRP-R [2] = biological target: T1, GRP-R; assay: Binding of 177Lu-DOTA-gluBBN in PC-3 cells (dissociation constant); details: 0.01 to 100 nM, 37° C., 2 hours
Procedure: as §1, §2
In addition, 177Lu-DOTA-gluBBN (0.01 to 100 nM) prepared according to Example 2 was reacted, respectively, in the PC-3 cells. After culturing a cell plate at 37° C. for 2 hours, a reaction solution was recovered. After the cells were washed with PBS and recovered by 1N NaOH, radioactivity of each solution was measured using a gamma counter.

[3] = In vivo histological toxicity (spleen and kidney, H&E); design: species or system Balb/c nude mouse; details: therapeutic dose, H&E stained, versus normal and control group
Procedure: (§3) In order to confirm a toxicological effect by therapeutic dose, a body weight and histological states of organs were evaluated. The body weight was measured twice a week, and after euthanizing the animal model at the timing at which evaluation was terminated, spleen and kidney tissue was collected and H&E stained.

[4] = In vivo physiological toxicity (body weight); design: species or system mouse; details: therapeutic dose, early stage of administration, measured twice a week
Procedure: as §3

[5] = In vivo distribution in PC-3 xenografted tumor mouse model; details: male, Balb/c nude, tumor (PC-3 xenograft), total radioactivity, prostate cancer cells (tumor), 1 hour after intravenous injection, 370 KBq, read-out: tumor uptake, percentage of the injected dose per unit weight
Procedure: In order to evaluate in vivo targeting efficiency of 177Lu-DOTA-gluBBN, in vivo distribution of 177Lu-DOTA-gluBBN in a tumor mouse model obtained by xenografting PC-3 cells, which are human prostate cancer cells, into a Balb/c nude mouse (Nara biotech, Korea) was evaluated. The tumor-bearing mouse model was prepared by subcutaneously injecting the PC-3 cells (1×10^7) into a right upper end of the shoulder of a male Balb/c nude mouse (7 weeks old) and allowing tumor to grow for 3 weeks. 177Lu-DOTA-gluBBN (370 KBq) was intravenously injected into a tail vein of the tumor mouse model. After […] of injection, the experimental animal was euthanized. Then, after the blood, the liver, the kidney, the spleen, the heart, the large intestine, the small intestine, the lung, the stomach, the pancreas, and the like, in addition to the tumor were extracted, weights of the organs were measured, and radioactivity of each organ was measured. 177Lu-DOTA-gluBBN uptake in each organ was expressed as percentage of the injected dose per unit weight (% ID/g). It was confirmed that 177Lu-DOTA-gluBBN targeted prostate cancer cells at 1 hour after intravenous injection with high efficiency (12.42±2.15% ID/g).

prostate cancer = assay: Comparison of in vivo targeting efficiency to prostate cancer with comparative material 177Lu-AMBA; details: versus comparative material 177Lu-AMBA
Source text: As a material having prostate cancer targeting mechanism similar to that of the bombesin derivatives (177Lu-DOTA-gluBBN) using the bombesin derivatives, which is the GRP-R agonist, prepared according to Example 2, 177Lu-AMBA (comparative material (J. Nucl. Med. 47(7):1144-1152 (Non-Patient Document)), see compound in FIG. 1) is a prostate cancer targeting diagnosis and treatment material of which excellent targeting efficiency is recognized, such that currently a phase 1 clinical trial was terminated.

T1 sequence (P30550 whole entry): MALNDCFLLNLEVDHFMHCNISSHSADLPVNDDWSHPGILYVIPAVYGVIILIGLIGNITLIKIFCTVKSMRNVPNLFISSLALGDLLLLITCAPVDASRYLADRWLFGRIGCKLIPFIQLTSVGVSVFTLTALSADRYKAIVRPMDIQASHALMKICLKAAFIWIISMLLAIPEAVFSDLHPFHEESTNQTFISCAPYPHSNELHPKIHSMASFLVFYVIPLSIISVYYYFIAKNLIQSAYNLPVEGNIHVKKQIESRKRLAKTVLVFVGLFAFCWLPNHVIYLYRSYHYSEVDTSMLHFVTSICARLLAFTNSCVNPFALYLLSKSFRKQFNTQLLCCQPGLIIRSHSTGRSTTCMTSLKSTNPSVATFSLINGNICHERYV

In the case of `CSCC[C@H](NC(=O)[C@H](CC(C)C)NC(=O)[C@H](Cc1c[nH]cn1)NC(=O)CNC(=O)[C@@H](NC(=O)[C@H](C)NC(=O)[C@H](Cc1c[nH]c2ccccc12)NC(=O)[C@H](CCC(N)=O)NC(=O)c1ccc(NC(=O)[C@H](CCCCNC(=O)CO[C@@H]2[C@@H](O)[C@@H](O)O[C@H](CO)[C@H]2O)NC(=O)CN2CCN(CC(=O)O)CCN(CC(=O)O)CCN(CC(=O)O)CC2)cc1)C(C)C)C(N)=O` [DOTA-gluBBN], the IC50 (GRP-R [1]) is reported as 4.67 nM.

With `CSCC[C@H](NC(=O)[C@H](CC(C)C)NC(=O)[C@H](Cc1c[nH]cn1)NC(=O)CNC(=O)[C@@H](NC(=O)[C@H](C)NC(=O)[C@H](Cc1c[nH]c2ccccc12)NC(=O)[C@H](CCC(N)=O)NC(=O)c1ccc(NC(=O)[C@H](CCCCNC(=O)CO[C@@H]2[C@@H](O)[C@@H](O)O[C@H](CO)[C@H]2O)NC(=O)CN2CCN(CC(=O)O)CCN(CC(=O)O)CCN(CC(=O)O)CC2)cc1)C(C)C)C(N)=O` [177Lu-DOTA-gluBBN, metal not drawn] the Kd (GRP-R [2]) was about 0.63 nM, the “histological toxicity in spleen and kidney” value [3] was “not observed” and the body weight change [4] was “there was not a great change in the body weight”. For the same compound, the tissue uptake at 1 h [5] was 12.4 ± 2.15 %ID/g and the “removal in the blood versus 177Lu-AMBA” value (prostate cancer) was “more rapidly removed in the blood”.
